According to article PMC2680211 (Bioorganic & medicinal chemistry, 2008):

Molecular target: hKOPR (Homo sapiens, UniProt P41145)
Assay type: biochemical

Sequence of hKOPR (P41145 whole entry): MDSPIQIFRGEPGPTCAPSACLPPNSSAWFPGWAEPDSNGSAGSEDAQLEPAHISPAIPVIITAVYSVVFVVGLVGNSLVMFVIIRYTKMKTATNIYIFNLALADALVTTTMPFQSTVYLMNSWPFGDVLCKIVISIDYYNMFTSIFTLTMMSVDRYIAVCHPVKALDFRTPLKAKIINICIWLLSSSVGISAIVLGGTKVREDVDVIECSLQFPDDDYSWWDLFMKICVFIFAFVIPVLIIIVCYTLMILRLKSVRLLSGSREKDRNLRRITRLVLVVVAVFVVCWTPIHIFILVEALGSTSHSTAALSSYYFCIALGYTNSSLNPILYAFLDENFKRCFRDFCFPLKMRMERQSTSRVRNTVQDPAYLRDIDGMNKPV

COC(=O)[C@@H]1C[C@H](OC(C)=O)C(=O)[C@H]2[C@@]1(C)CC[C@H]1C(=O)O[C@H](c3ccoc3Br)C[C@]21C [Compound 2, 16-bromosalvinorin A]
KOPR agonism in the [35S]GTPγS functional assay (in words): highly potent KOPR agonist

COC(=O)[C@@H]1C[C@H](OC(C)=O)C(=O)[C@H]2[C@@]1(C)CC[C@H]1C(=O)O[C@@H](c3ccoc3)C[C@]21C [Compound 6, 12-epi-Salvinorin A]
KOPR agonism in the [35S]GTPγS functional assay (in words): partial agonist effects | KOPR antagonism: effect on U50,488-induced [35S]GTPγS binding: partially blocked the effect of U50,488 | reduction of [35S]GTPγS binding induced by U50,488: significantly reduced

COC(=O)[C@@H]1C[C@H](OC(C)=O)C(=O)[C@H]2[C@@]1(C)CC[C@H]1C(=O)O[C@H](C(=O)O)C[C@]21C [Compound 7]
KOPR agonism in the [35S]GTPγS functional assay (in words): weak agonist

COC(=O)[C@@H]1C[C@H](OC(C)=O)C(=O)[C@H]2[C@@]1(C)CC[C@H]1C(=O)O[C@H](COC(C)=O)C[C@]21C [Compound 11]
KOPR agonism in the [35S]GTPγS functional assay (in words): weak KOPR agonist
